Target: Phosphatidylinositol 3-kinase regulatory subunit alpha [Q431L,Q432E,D433V,Q434L,V435F,V436Q,K437G,E438P]/4,5-bisphosphate 3-kinase catalytic subunit alpha isoform (Homo sapiens, UniProt P42336)
Experiment: Biochemical Assay
From the text: PI3KA_Act: Genes encoding for full length p110alpha and p85alpha nSH-iSH2=niSH2 (p85a aminoacids 322-600) subunits of PI3Kalpha complex were subcloned from existing constructs into pFASTBAC Dual vector (Life Technologies, Carlsbad, Calif.) using standard cloning procedures. Gene encoding p110alpha subunit was subcloned into polyhedrine promoter while gene encoding p85alpha niSH2 domains was subcloned into p10 promoter. Additionally, Human Rhinovirus 3C Protease (HRV 3C) site was introduced between nSH2 and iSH2, replacing aminoacids 431-438 of p85alpha with […] HRV 3C recognition sequence, using standard QuickChange mutagenesis protocol (Agilent Technologies, CA). Recombinant baculovirus was generated using Bac-to-Bac protocol (Life Technologies, Carlsbad, Calif.). The biochemical assays of kinase activity of full-length PI3Kalpha (full-length p110alpha/p85a) or truncated PI3Kalpha (p110alpha/iSH2 p85a) were conducted using a fluorescence polarization format similar to the procedure of Yuan J., et al., (2011) "PF-04691502, a Potent and Selective Oral Inhibitor of PI3K and mTOR Kinases with Antitumor Activity, Mol Cancer Ther. 10, 2189-2199.

| Compound | Ki |
| --- | --- |
| CC(C)(CO)C(=O)N1CC[C@](C)(N2CCc3c(-c4cnc(N)nc4)nc(N4CCOCC4)nc32)C1 [US9260439, 277] | 0.034 nM |
| CC(=O)NCC(=O)N1CC(N2CCc3c(-c4cnc(N)nc4)nc(N4CCOC[C@@H]4C)nc32)C1 [US9260439, 201] | 1.4 nM |
| C[C@]1(N2CCc3c(-c4cnc(N)nc4)nc(N4CCOCC4)nc32)CCN(C(=O)C2(O)CC2)C1 [US9260439, 338] | 0.071 nM |
| C[C@]1(N2CCc3c(-c4cnc(N)nc4)nc(N4CCOCC4)nc32)CCN(C(=O)C2(CO)CC2)C1 [US9260439, 339] | 0.08 nM |
| C[C@]1(N2CCc3c(-c4cnc(N)nc4)nc(N4CCOCC4)nc32)CCN(C(=O)C2(F)CC2)C1 [US9260439, 331] | < 0.018 nM |
